Experimental data from US20150272939A1, “Identification of Small Molecule Inhibitors of Jumonji AT-Rich Interactive Domain 1A (JARID1A) and 1B (JARID1B) Histone Demethylase” (Yale University, priority 2012, published 2015).

Legend:
[1] = AlphaScreen counterscreen against bio-H3K4me2 peptide in the absence of enzyme (artifact signal); details: effect of the compound when incubated with bio-H3K4me2 peptide (counterscreen, no enzyme);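 further: counterscreen run without enzyme against bio-H3K4me2 peptide to remove false positive hits from the JARID1 demethylase AlphaScreen screen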
JARID1B = molecular target: T1, JARID1B (Homo sapiens, UniProt Q9UGL1); test: FLAG-JARID1B histone demethylase assay with AlphaScreen detection (HTS and dose response); type: biochemical; details: for Assay − Artifact Signal (percent): assay signal minus artifact signal; for inhibition at 20 µM: high-throughput screen, compound 20 μM, standard demethylase conditions (10 μM α-KG, 50 μM Fe (II)), read-out: Inhibitory effect (percent); for Assay Signal (percent): validation of HTS actives, effect of compound in JARID1B AlphaScreen assay;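 on Assay Signal (percent): compound tested at 20 µM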;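 on Assay − Artifact Signal (percent): compound tested at 20 µM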;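 on all read-outs here: FLAG-tagged JARID1B at 4 nM acting on a biotinylated H3K4me3 peptide, demethylation read by AlphaScreen luminescence, with hits checked against bio-H3K4me2 without enzyme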
T1 construct: The FLAG tagged full length JARID1B enzyme was expressed in Sf21 insect cells using FLAG-JARID1B baculoviruses; FLAG (N); made in house; host or cells: Sf21 insect cells (baculovirus)
T1 sequence (Q9UGL1 whole entry): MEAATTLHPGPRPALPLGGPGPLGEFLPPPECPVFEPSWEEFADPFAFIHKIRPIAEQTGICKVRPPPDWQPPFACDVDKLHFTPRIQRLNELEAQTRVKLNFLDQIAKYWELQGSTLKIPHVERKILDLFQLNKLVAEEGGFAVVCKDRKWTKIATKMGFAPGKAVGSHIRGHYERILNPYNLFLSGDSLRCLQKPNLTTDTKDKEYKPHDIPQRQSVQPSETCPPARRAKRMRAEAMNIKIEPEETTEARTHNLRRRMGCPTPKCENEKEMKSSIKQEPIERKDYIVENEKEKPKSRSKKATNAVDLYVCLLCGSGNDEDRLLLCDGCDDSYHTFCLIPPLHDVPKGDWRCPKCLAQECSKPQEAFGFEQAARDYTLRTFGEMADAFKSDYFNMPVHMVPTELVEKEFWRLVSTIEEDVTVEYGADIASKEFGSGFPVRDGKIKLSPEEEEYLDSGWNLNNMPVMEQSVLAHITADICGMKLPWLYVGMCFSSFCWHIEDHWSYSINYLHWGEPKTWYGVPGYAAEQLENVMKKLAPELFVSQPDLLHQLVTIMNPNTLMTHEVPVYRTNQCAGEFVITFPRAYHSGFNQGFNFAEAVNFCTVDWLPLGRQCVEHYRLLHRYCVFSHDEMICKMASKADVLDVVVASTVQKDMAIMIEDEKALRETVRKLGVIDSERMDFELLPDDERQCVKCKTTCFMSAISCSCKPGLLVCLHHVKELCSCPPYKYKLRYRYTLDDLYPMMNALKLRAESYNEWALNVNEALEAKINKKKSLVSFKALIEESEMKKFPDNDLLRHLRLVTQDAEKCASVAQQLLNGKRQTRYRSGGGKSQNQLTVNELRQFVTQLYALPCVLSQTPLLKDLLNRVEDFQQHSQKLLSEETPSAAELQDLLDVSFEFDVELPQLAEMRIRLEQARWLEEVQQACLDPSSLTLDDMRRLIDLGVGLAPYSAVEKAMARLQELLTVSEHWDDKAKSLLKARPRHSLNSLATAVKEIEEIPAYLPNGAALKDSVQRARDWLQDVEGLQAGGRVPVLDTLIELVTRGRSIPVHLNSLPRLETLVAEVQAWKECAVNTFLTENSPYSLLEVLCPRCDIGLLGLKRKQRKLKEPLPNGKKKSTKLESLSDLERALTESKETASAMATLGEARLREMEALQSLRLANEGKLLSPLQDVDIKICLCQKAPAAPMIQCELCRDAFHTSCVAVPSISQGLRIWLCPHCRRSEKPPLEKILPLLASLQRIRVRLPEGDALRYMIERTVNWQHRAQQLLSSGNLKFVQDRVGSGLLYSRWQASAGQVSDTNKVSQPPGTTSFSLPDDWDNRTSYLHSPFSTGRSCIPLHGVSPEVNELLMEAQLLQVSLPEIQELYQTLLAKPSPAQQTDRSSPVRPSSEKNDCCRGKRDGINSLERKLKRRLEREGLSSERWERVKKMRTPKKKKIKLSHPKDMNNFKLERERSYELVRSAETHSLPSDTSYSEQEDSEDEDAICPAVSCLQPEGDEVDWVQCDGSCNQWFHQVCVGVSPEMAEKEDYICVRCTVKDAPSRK

Structure (SMILES)	Artifact Signal (percent) [1] [%]	Assay − Artifact Signal (percent) (JARID1B) [%]	inhibition at 20 µM (JARID1B) [%]	Assay Signal (percent) (JARID1B) [%]
O=Cc1ccc(-c2ccc(S(=O)(=O)O)cc2)o1 [YU146454]	−4.14	68.83	42.3	64.68
COc1ccccc1OCc1nnc(S)n1C [YU146471]	−1.64	47.93	36.4	46.29
N#CC(=Cc1ccc(-c2ccccc2)o1)C(N)=S [YU146534]	4.53	10.89	32.8	15.42
O=C(O)CCCSCC(=O)Nc1ccccc1 [YU146590]	2.50	10.85	60.2	13.35
COc1cc(C=O)ccc1OC(=O)c1ccncc1 [YU146698]	−5.12	53.39	52.5	48.27
Fc1cccc(Cl)c1CNn1cnnc1S [YU146768]	−0.52	49.49	34	48.97
C=CCn1c(-c2ccc([N+](=O)[O-])cc2)n[nH]c1=S [YU147005]	3.36	34.06	36.8	37.42
S=C(Nc1ccc2c(c1)OCO2)Nn1cnnc1 [YU147019]	−1.29	17.76	37.3	16.46
Cc1ccccc1C(=O)NCc1nnc(S)n1C [YU147024]	−5.84	35.27	31.6	29.44
O=C(NC(=S)NCc1ccccc1)C1CCCC1 [YU147054]	−1.54	24.52	33.9	22.98
N#CC(=Cc1ccncc1)c1nc2ccccc2s1 [YU147088]	0.34	45.66	39.8	46.00
Cc1nnc(S)n1NCc1ccc2c(c1)OCO2 [YU147191]	1.94	43.11	31.5	45.05
COCCCNCCOc1cc(C(C)C)ccc1C [YU147245]	1.25	12.07	30.9	13.31
CCOc1cc(CN)cc(Cl)c1OCC.Cl [YU147266]	0.11	69.10	68.6	69.21
CCSc1nnc(-c2cc(OC)cc(OC)c2)o1 [YU147278]	−5.71	15.14	32.8	9.43
